The values below come from patent US10709735B2, “Immunotherapy against neuronal and brain tumors” (IMMATICS BIOTECHNOLOGIES GMBH, priority 2007, dated 2020).

The subject of this assay is CD8+ T cells. The assay is described as follows: In vitro immunogenicity: priming of CD8+ T cells with peptide-MHC/anti-CD28 coated beads (aAPC), tetramer readout. The assay is classed as cell-based, human. As to conditions: CD8+ T cells of healthy HLA-A*02+ donors, three stimulation cycles with high density beads; positive well: at least 1% specific tetramer+ among CD8+ T cells and at least 10x median of negative controls. The method, then:
To perform in vitro stimulations by artificial antigen presenting cells (aAPC) loaded with peptide-MHC complex (pMHC) and anti-CD28 antibody, PBMCs (peripheral blood mononuclear cells) were isolated from fresh HLA-A*02+ buffy coats by using standard density gradient separation medium (PAA, Cölbe, Germany). Buffy coats were obtained from the Katharinenhospital Stuttgart. Isolated PBMCs were incubated overnight in T-cell medium (TCM) for human in vitro priming consisting of RPMI-Glutamax (Invitrogen, Karlsruhe, Germany) supplemented with 10% heat inactivated human AB serum (PAA, Cölbe, Germany), 100 U/ml Penicillin/100 μg/ml Streptomycin (Cambrex, Verviers, Belgium), 1 mM sodium pyruvate (CC Pro, Neustadt, Germany) and 20 μg/ml Gentamycin (Cambrex). CD8+ lymphocytes were isolated using the CD8+ MACS positive selection kit (Miltenyi, Bergisch Gladbach, Germany) according to the manufacturer's instructions. Obtained CD8+ T cells were incubated until use in TCM supplemented with 2.5 ng/ml IL-7 (PromoCell, Heidelberg, Germany) and 10 U/ml IL-2 (Chiron, Munich, Germany). Generation of pMHC/anti-CD28 coated beads, T-cell stimulations and readout was performed as described before (Walter et al., 2003) with minor modifications. Briefly, biotinylated recombinant HLA-A*0201 molecules lacking the transmembrane domain and biotinylated at the carboxy terminus of the heavy chain were produced following a method described by Altman et al., 1996). The purified costimulatory mouse IgG2a anti human CD28 Ab 9.3 (Jung et al., 1987) was chemically biotinylated using Sulfo-N-hydroxysuccinimidobiotin as recommended by the manufacturer (Perbio, Bonn, Germany). 5.60 μm large streptavidin coated polystyrene particles beads were used (Bangs Laboratories, Illinois/USA). pMHC was used as positive and negative controls were A*0201/MLA-001 (peptide […] from modified Melan-A/MART-1) and A*0201/DDX5-001 ([…] from DDX5), respectively.
800,000 beads/200 μl were coated in 96-well plates in the presence of 600 ng biotin anti-CD28 plus 200 ng relevant biotin-pMHC (high density beads) or 2 ng relevant plus 200 ng irrelevant (pMHC library) MHC (low density beads). Stimulations were initiated in 96-well plates by conincubating 1×10^6 CD8+ T cells with 2×10^5 washed coated beads in 200 μl TCM supplemented with 5 ng/ml IL-12 (PromoCell) for 3-4 days at 37° C. Half of the medium was then exchanged by fresh TCM supplemented with 80 U/ml IL-2 and incubating was continued for 3-4 days at 37° C. This stimulation cycle was performed for a total of three times. Finally, tetrameric analyses were performed with fluorescent MHC tetramers (produced as described by (Altman et al., 1996)) plus antibody CD8-FITC clone SK1 (BD, Heidelberg, Germany) on a FACSCalibur or a LSR II flow cytometer (BD). Peptide specific cells were calculated as percentage of total CD8+ T cells. Evaluation of tetrameric analysis was performed using the software FCS Express (De Novo Software). In vitro priming of specific tetramer+ CD8+ lymphocytes was detected by appropriate gating and by comparing to negative control stimulations.
Results shown have been obtained by stimulation of CD8+ cells with high density beads. As different human serum lots may highly affect the immunogenicity results, only assays in which one and the same serum lot was used, were evaluated together.

With “AIIDGVESV (listed as Homo sapiens) [PTP-003, PTPRZ1-derived tumor associated peptide, HLA A*02]”, the Immunogenicity detected result is listed as “Yes”.

In the case of “ALTTLMHQL (listed as Homo sapiens) [PTP-001, PTPRZ1-derived tumor associated peptide, HLA A*0205]”, the Immunogenicity detected entry is “Yes”.

Turning to “FLLPDTDGL (listed as Homo sapiens) [PTP-004, PTPRZ1-derived tumor associated peptide, HLA A*02]”, the Immunogenicity detected result is “Yes”.

Regarding “FLYKVILSL (listed as Homo sapiens) [PTP-002, PTPRZ1-derived tumor associated peptide, HLA A*02]”, the Immunogenicity detected entry was “Yes”.

Consider “KVFAGIPTV (listed as Homo sapiens) [PTP-005, PTPRZ1-derived tumor associated peptide, HLA A*02]”, for which the Immunogenicity detected entry is reported as “Yes”.

On to “SLWAGVVVL (listed as Homo sapiens) [CHI-001, CHI3L2-derived tumor associated peptide, HLA A*02]”, for which the Immunogenicity detected result is “Yes”.
